One data set deals with GIPR. The data set is described as follows: cell-based or functional assay.
The next data set deals with GLP-1R. As to the kind of experiment: cell-based or functional assay.
In another data set the target is GCGR. The data set is described as follows: cell-based or functional assay.
Data set [1] is described as follows: Pharmacokinetics of peptides in mice (plasma levels by GLP-2R cell based reporter assay). The following applies: mouse, in vivo. In general terms: A reporter such as luciferase makes a cellular process visible.
Experimental: Briefly, female CD-1 mice (n=4 per group) from Charles River Laboratory were fasted overnight and administrated with 100 μL of each peptide in phosphate buffered saline by intravenous (iv) or subcutaneous (sc) route. Food was provided to mice immediately after bleeding at 30 min. […] The resulting supernatant plasma were then stored at −80° C. for peptide concentration determination. The concentrations of peptides in plasma at each time point were determined by in vitro cell based activity assay. […] At the same time, the same peptides were used to obtain standard curves and parameters for Bottom, Top, EC50, and Hill slope. Relative light unit (RLU) for each plasma sample was used to calculate the peptide concentrations in plasma (nmol/L), using parameters derived from the standard curve (RLU=Bottom+(Top−Bottom)/(1+10((log EC50−Conc)Hill slope)). Peptide concentrations in plasma were obtained and plotted against time points to obtain in vivo half-life of each peptide, using WinNonLin Phoenix software (Pharsight Corp, St. Louis, Mo.).
Data set [2] deals with cyno monkey GLP2R (cyno monkey) (UniProt G1E7B0). As to the kind of experiment: cell-based or functional assay.
For a further data set, the target named is mouse GLP2R (mouse) (UniProt Q5IXF8). The data set is described as follows: cell-based or functional assay.
The test system of data set [3] is mouse model of acute colitis. The data set is described as follows: DSS-induced acute colitis in C57BL/6 mice (GLP2-2G-10Nle-1K-EX4-K5).
Experimental: (§1) Each group contained 6 mice, except for group A, which contained 4.
(§2) The body weight was monitored daily. If animals lost more than 20% of their bodyweight, they were euthanized. […] On day 11, animals were euthanized, and a necropsy was performed. The terminal bleed was collected into a heparinized collection tube and processed into plasma. The small intestine and colon were collected to measure weight and length. GI tissues were collected for histology.
The target of a further data set is T1, cyno monkey GLP2R (Macaca fascicularis, UniProt G1E7B0).
T1 sequence (G1E7B0 1-553): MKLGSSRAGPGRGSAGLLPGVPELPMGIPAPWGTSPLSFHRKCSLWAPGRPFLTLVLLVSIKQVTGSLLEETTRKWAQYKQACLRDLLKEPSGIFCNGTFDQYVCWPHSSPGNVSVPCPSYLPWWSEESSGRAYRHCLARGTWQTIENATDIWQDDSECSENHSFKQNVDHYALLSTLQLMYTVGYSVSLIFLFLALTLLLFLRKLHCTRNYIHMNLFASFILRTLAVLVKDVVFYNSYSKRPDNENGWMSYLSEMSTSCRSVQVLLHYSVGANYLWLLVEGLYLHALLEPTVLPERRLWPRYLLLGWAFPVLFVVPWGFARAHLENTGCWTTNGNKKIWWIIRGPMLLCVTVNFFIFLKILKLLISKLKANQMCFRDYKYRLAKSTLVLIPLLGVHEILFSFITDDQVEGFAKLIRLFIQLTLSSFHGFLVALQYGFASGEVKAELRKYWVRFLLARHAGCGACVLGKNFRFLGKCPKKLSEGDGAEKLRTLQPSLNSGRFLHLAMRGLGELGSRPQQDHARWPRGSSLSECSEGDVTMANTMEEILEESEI
The data set is described as follows: In vitro potency on cyno monkey GLP2R (665/615 ratio). The format is cell-based.

For the next data set, the target named is T2, mouse GLP2R (Mus musculus, UniProt Q5IXF8).
T2 sequence (Q5IXF8 1-512): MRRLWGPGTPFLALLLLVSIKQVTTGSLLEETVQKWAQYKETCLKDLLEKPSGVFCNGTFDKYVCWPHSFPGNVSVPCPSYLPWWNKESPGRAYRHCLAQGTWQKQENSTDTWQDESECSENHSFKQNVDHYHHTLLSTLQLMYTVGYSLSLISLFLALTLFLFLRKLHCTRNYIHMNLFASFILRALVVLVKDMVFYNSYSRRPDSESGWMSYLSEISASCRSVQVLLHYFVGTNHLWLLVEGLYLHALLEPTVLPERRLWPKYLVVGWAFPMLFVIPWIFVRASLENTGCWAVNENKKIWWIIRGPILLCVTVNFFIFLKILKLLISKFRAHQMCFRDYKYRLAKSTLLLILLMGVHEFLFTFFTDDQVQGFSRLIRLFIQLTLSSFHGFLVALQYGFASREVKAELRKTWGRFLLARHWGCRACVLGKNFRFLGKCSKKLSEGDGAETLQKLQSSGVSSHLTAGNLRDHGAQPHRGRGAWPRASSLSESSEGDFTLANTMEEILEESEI
The data set is described as follows: In vitro potency on mouse GLP2R (cAMP, 665/615 ratio). As to conditions: read-out: mGLP-2R IC50. It is filed as cell-based.

The subject of data set [4] is chronic DSS-induced colitis model. As to the kind of experiment: Chronic DSS-induced colitis in C57BL/6 mice (GLP2-2G-10Nle-1-Ex4-L5A). It is filed as in vivo. The following applies: teduglutide 0.5 mg/kg BID. As for the experimental part: Treatment was administered either subcutaneously (S) or intraperitoneally (IP) either once daily (QD) or twice daily (BID). […] Bodyweight was monitored 3 times a week. […] At day 33, a necropsy was performed, and measurements were taken. These measurement included collecting terminal bleed; dissecting out the small intestine; measuring the length and weight of the small intestine; and recording the length and weight of the empty large intestine.

The subject of data set [5] is mouse model of acute colitis. As to conditions: in vivo.
Experimental: as §1, §2
Data set [6] relates to mouse model of environmental enteric dysfunction (EED). The data set is described as follows: Weaning undernutrition mouse model of environmental enteric dysfunction (EED). It is filed as in vivo, mice. The procedure:
A weaning undernutrition model was used to assess the ability of GLP2-2G-10Nle-1K-EX4-K5 to treat environmental enteric dysfunction (EED). All dams were placed on an isocaloric Northeast Brazil (Regional Basic Diet—RBD), which was moderately deficient in protein, fat and minerals when their pups were 10 days old. At weaning (3 weeks of age), pups were placed on either a standard control diet (CD) or continued on RBD. At 4 weeks of age, weanlings were given drug or placebo (0.1 mg/kg formulated in PBS (vehicle)) once a day subcutaneously for 2-3 weeks. Bodyweight and food consumption were measured twice weekly. Stool was collected at weaning, 6 weeks of age, and 8 weeks of age for calorimetry and microbiome. Oral FITC-dextran was used as a measurement of barrier function. At 6 weeks of age, mice were euthanized, and jejunal tissue was collected for morphology, immunohistochemistry, and for chamber analysis of transmucosal resistance and permeability.

Data set [7] has as its system mouse model of chronic colitis. The data set is described as follows: Chronic DSS-induced colitis in C57BL/6 mice (GLP2-2G-1-EX4-L5A). The format is in vivo. The following applies: 0.1 and 0.3 mg/kg SC QD 7 days, teduglutide 0.3 mg/kg SC QD. The procedure:
Animals were treated daily for 7 days during the last DSS-induction cycle. Treatment was administered either subcutaneously (S) or intraperitoneally (IP) either once daily (QD) or twice daily (BID).
Bodyweight was monitored 3 times a week. Pharmacokinetic collection occurred 3 and 4 days prior to necropsy. At day 33, a necropsy was performed, and measurements were taken. These measurement included collecting terminal bleed; dissecting out the small intestine; measuring the length and weight of the small intestine; and recording the length and weight of the empty large intestine.

From patent US20230057847A1, “GLP2 RECEPTOR AGONISTS AND METHODS OF USE” (The Scripps Research Institute, priority 2019, published 2023) come the findings set out here.

Where only a bound is given, the exact number is not on record here.

As for GLP-2 (ligand), the IC50 [nM] (665/615 ratio, free cAMP) with GIPR, in the data set with GLP-1R and with GCGR was above 500 nM throughout.

Regarding `CC[C@H](C)[C@@H]1NC(=O)[C@H](Cc2ccccc2)NC(=O)[C@H](CC(=O)O)NC(=O)[C@H](CCCNC(=N)N)NC(=O)[C@H](C)NC(=O)[C@H](C)NC(=O)[C@@H](NC(=O)[C@H](CC(N)=O)NC(=O)[C@H](CC(=O)O)NC(=O)[C@H](CC(C)C)NC(=O)[C@@H](NC(=O)[C@@H](NC(=O)[C@H](CC(N)=O)NC(=O)[C@H](CCSC)NC(=O)[C@H](CCC(=O)O)NC(=O)[C@H](CC(=O)O)NC(=O)[C@H](CO)NC(=O)[C@H](Cc2ccccc2)NC(=O)[C@H](CO)NC(=O)CNC(=O)[C@H](CC(=O)O)NC(=O)CNC(=O)[C@@H](N)Cc2c[nH]cn2)[C@@H](C)O)[C@@H](C)CC)CCCCNC(=O)CN(C(=O)CCNC(=O)CCOCCOCCNC(=O)CCOCCOCCNC(=O)CC[C@H](NC(=O)CCCCCCCCCCCCCCCCC(=O)O)C(=O)O)CC(=O)NCCCC[C@@H](C(=O)N[C@@H](Cc2c[nH]c3ccccc23)C(=O)N[C@@H](CC(C)C)C(=O)N[C@H](C(=O)N[C@@H](CCC(N)=O)C(=O)N[C@H](C(=O)N[C@@H](CCCCN)C(=O)N[C@H](C(=O)N[C@H](C(=O)N[C@@H](CC(=O)O)C(=O)N2CCC[C@H]2C(=O)N[C@@H](CO)C(=O)N[C@@H](CO)C(=O)NCC(=O)N[C@@H](C)C(=O)N2CCC[C@H]2C(=O)N2CCC[C@H]2C(=O)N2CCC[C@H]2C(=O)N[C@@H](CO)C(N)=O)[C@@H](C)O)[C@@H](C)CC)[C@@H](C)O)[C@@H](C)CC)NC1=O` [Conjugate 17], the half-life in [1] (10 nmol/kg, read-out: Mouse T½/h (converted)) was 511.8 ± 2.64 min. Besides, the clearance in [1] (CD1 female mice, 10 nmol/kg iv or sc, read-out: Mouse CL/(mL/h/kg) (converted)) is 14.4 mL/h/kg.

Consider Teduglutide (peptide), for which, in data set [2], the EC50 [nM] (ratio of 665 to 615) was 0.009 nM. For the same molecule, in the data set with mouse GLP2R (mouse), the IC50 [nM] (665/615 ratio, free cAMP) was determined as 0.07 nM.

Turning to `CC[C@H](C)[C@H](NC(=O)[C@H](Cc1ccccc1)NC(=O)[C@H](CC(=O)O)NC(=O)[C@H](CCCNC(=N)N)NC(=O)[C@H](C)NC(=O)[C@H](C)NC(=O)[C@H](CC(C)C)NC(=O)[C@H](CC(N)=O)NC(=O)[C@H](CC(=O)O)NC(=O)[C@H](CC(C)C)NC(=O)[C@@H](NC(=O)[C@@H](NC(=O)[C@H](CC(N)=O)NC(=O)[C@H](CCSC)NC(=O)[C@H](CCC(=O)O)NC(=O)[C@H](CC(=O)O)NC(=O)[C@H](CO)NC(=O)[C@H](Cc1ccccc1)NC(=O)[C@H](CO)NC(=O)CNC(=O)[C@H](CC(=O)O)NC(=O)CNC(=O)[C@@H](N)Cc1c[nH]cn1)[C@@H](C)O)[C@@H](C)CC)C(=O)N[C@@H](CC(N)=O)C(=O)N[C@@H](Cc1c[nH]c2ccccc12)C(=O)N[C@@H](CC(C)C)C(=O)N[C@H](C(=O)N[C@@H](CCC(N)=O)C(=O)N[C@H](C(=O)N[C@@H](CCCCN)C(=O)N[C@H](C(=O)N[C@H](C(=O)N[C@@H](CC(=O)O)C(=O)O)[C@@H](C)O)[C@@H](C)CC)[C@@H](C)O)[C@@H](C)CC` [Teduglutide, teduglutide, reference compound], in [3] (3% DSS 5 days, daily treatment 11 days, K5 0.1-1 mg/kg SC, teduglutide 0.5 mg/kg SC, cyclosporin 20 mg/kg IP), the bodyweight over time entry is “did not exhibit significant changes in bodyweight”. Moreover, the “small intestine length and weight” value in data set [3] (groups C-F vs untreated mice) is given as “significantly increased”. Further, the colon length result in data set [3] (groups D-F (K5 0.3, 1 mg/kg; teduglutide 0.5 mg/kg) vs group B) was “significantly increased”; in data set [4] (doses of 0.1 mg/kg and higher, vs group B) it was “significantly increased”. Further, the villus height entry in data set [3] (jejunum, groups C-F vs untreated mice (groups A-B)) is “significant increase”. For the same molecule, at cyno monkey GLP2R, the EC50 (in general, the concentration at which the effect is half-maximal) stood at 9 pM. Moreover, at mouse GLP2R, the IC50 – broadly, the concentration that inhibits the measured activity by half – came to 0.07 nM. For the same molecule, the small intestine length result in data set [4] (doses of 0.1 mg/kg and higher, vs untreated) is “significant increases”. In addition, the colon weight result in [4] (doses of 0.3 mg/kg or higher, vs untreated) was “increased”. In addition, the “detectability in plasma after dosing” value in data set [5] is given as “not detectable after 3 hours post treatment”. Moreover, the “intestinal permeability (FITC-dextran)” value in data set [6] (CD females vs untreated) is recorded as “significant decreases in permeability”; in data set [6] (CD males vs untreated), “trend towards decreased permeability”; in data set [6] (RBD females or RBD males vs untreated) it was “did not significantly affect the permeability”. For the same molecule, the “small intestine wet body weight/body weight” value in data set [6] (CD females vs untreated), in data set [6] (CD males vs untreated) and in data set [6] (RBD males vs untreated) was “significant increase” throughout. The crypt depths entry in [6] (CD males vs untreated) is “longer crypt depths”. In data set [6] (CD males vs untreated), the villus heights entry is “significantly longer villus heights”. Further, the “length of the small intestine” value in data set [6] (animals weaned to CD and to RBD diet, vs untreated) was “significant increase”. For the same molecule, the weight gain entry in [6] (male and female RBD mice weaned to CD, 0.1 mg/kg SC once a day) is “trends towards greater weight gain”. In addition, the weight entry in data set [6] (male and female mice weaned to RBD, 0.1 mg/kg SC once a day) is reported as “trends towards worsening weight”. For the same molecule, the bodyweight loss result in data set [7] is “did not show the same loss in percent of bodyweight”.
